For 13 compounds, IC50 results are on record in patent publication US11739098B2 (BRISTOL-MYERS SQUIBB COMPANY, priority 2017, dated 2023).

Holding throughout (assay type): cell-based
One assay has as its target T1, human TLR8 (Homo sapiens, UniProt Q9NR97).
T1 construct: host or cells: HEK-Blue cells (HEK293-derived reporter line)
T1 sequence (Q9NR97 27-1041): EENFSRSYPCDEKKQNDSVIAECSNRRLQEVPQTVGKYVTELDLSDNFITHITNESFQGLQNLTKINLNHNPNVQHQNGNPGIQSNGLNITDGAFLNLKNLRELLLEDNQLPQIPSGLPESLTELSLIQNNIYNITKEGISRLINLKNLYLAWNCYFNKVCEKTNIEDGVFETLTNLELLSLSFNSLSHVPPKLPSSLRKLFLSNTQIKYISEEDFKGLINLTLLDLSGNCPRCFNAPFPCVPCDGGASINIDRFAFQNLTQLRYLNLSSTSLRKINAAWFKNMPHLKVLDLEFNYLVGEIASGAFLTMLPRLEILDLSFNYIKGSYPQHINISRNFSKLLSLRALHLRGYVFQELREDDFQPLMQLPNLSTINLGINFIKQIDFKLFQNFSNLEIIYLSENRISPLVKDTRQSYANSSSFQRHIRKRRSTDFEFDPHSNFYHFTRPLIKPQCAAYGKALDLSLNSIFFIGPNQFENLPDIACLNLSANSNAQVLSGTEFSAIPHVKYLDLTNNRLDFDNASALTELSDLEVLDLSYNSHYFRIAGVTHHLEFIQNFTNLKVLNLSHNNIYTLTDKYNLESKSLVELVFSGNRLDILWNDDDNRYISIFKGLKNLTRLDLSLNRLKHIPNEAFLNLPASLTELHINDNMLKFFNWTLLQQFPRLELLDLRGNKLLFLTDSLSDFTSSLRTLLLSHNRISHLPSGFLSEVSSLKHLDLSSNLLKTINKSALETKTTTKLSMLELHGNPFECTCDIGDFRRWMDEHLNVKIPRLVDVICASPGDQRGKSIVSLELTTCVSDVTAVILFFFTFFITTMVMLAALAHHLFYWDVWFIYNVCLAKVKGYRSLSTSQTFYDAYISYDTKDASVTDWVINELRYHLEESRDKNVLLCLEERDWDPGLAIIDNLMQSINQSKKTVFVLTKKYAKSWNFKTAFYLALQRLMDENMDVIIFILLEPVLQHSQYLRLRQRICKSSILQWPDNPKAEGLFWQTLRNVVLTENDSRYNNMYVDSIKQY
The assay is described as follows: TLR8 inhibition reporter assay (HEK-Blue cells, SEAP reporter, R848 stimulation). The following applies: HEK-Blue cells overexpressing human TLR8, SEAP reporter, R848 15.9 μM. In short, it runs like this: (§1)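 Percent inhibition of agonist-induced SEAP secretion in HEK-Blue cells after 22 h at 37 °C. Stimuli: 7.5 μM gardiquimod, 15.9 μM R848, 5 nM ODN2006 for TLR7, TLR8 and TLR9, added after 30 min compound exposure over a 0.05 nM–50 μM range.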
For orientation: In a reporter assay the amount or activity of a reporter protein is the signal.

The target in another assay is T2, human TLR7 (Homo sapiens, UniProt Q9NYK1).
T2 construct: host or cells: HEK-Blue cells (HEK293-derived reporter line)
T2 sequence (Q9NYK1 27-1049): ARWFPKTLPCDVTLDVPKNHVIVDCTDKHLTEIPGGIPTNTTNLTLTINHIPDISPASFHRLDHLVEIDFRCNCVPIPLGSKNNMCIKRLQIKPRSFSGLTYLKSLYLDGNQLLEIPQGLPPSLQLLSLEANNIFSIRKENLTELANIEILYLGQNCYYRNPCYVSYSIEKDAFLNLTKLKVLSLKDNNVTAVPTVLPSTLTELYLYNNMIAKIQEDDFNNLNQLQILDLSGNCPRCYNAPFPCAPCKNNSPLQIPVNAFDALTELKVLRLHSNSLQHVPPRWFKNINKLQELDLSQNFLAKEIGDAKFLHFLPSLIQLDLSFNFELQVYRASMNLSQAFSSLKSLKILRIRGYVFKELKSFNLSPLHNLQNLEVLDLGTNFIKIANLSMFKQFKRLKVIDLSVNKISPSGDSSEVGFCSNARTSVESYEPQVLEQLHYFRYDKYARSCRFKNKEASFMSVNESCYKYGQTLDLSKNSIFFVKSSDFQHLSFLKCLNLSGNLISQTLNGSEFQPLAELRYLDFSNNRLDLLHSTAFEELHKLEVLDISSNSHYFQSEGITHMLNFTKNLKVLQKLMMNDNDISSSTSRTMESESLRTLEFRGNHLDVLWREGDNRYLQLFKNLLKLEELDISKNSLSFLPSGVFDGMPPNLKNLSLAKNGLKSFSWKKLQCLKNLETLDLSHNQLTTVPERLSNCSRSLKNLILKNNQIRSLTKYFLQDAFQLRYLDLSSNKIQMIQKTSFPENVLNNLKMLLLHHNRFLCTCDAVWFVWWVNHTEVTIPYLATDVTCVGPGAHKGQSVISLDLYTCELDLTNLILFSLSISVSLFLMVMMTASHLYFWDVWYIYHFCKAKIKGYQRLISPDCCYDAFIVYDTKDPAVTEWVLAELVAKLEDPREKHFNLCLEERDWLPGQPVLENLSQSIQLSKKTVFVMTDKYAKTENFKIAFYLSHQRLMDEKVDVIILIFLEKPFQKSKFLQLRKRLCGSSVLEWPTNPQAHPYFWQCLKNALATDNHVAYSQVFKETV
The assay is described as follows: TLR7 inhibition reporter assay (HEK-Blue cells, SEAP reporter, gardiquimod stimulation). Particulars: HEK-Blue cells overexpressing human TLR7, SEAP reporter, gardiquimod 7.5 μM. In a few lines:
as §1

A further assay concerns the target T3, human TLR9 (Homo sapiens, UniProt Q9NR96).
T3 construct: host or cells: HEK-Blue cells (HEK293-derived reporter line)
T3 sequence (Q9NR96 26-1032): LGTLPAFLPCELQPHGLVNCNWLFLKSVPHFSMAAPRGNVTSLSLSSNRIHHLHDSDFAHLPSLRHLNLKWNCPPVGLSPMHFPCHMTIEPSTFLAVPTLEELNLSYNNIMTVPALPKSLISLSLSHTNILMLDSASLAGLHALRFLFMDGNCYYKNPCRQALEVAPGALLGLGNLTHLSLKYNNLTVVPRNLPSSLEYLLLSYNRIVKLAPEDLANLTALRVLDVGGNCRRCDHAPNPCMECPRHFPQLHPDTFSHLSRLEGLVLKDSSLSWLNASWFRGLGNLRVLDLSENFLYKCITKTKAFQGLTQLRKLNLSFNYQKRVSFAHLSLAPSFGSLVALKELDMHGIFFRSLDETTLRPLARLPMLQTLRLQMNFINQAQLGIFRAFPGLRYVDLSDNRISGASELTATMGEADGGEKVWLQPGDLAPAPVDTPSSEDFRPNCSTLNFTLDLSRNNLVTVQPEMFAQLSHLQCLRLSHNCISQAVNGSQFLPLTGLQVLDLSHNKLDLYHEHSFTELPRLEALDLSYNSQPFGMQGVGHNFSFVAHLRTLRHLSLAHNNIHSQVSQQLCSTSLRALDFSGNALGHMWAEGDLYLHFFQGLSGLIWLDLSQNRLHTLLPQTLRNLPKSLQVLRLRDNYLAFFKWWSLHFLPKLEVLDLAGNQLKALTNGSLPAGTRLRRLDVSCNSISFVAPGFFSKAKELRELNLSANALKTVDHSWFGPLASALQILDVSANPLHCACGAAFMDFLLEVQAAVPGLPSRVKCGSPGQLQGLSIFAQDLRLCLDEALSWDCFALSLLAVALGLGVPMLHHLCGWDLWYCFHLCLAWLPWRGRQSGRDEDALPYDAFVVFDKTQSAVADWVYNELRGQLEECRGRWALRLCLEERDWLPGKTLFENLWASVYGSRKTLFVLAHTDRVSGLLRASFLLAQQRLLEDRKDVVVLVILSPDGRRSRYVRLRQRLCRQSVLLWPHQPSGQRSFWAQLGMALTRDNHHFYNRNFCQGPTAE
In words: TLR9 inhibition reporter assay (HEK-Blue cells, SEAP reporter, ODN2006 stimulation). The following applies: HEK-Blue cells overexpressing human TLR9, SEAP reporter, ODN2006 5 nM. In short, it runs like this: as §1

Usually IC50 stands for the midpoint of a concentration-inhibition curve. Turning to `CNCCN1CCC(c2ccc3[nH]c(-c4cc5cc(OC)ccc5o4)c(C)c3c2)CC1` [Example 671, 2-(4-(2-(5-methoxybenzofuran-2-yl)-3-methyl-1H-indol-5-yl)piperidin-1-yl)-N-methylethan-1-amine], the figures for the IC50 at human TLR8, on human TLR7 and against human TLR9 were over 3130 nM, over 50000 nM and 1000 to 50000 nM, respectively.
For `COCCNC(=O)c1cn2cc(-c3[nH]c4ccc(C5CCNCC5)cc4c3C(C)C)cc(C)c2n1` [Example 269, 6-(3-isopropyl-5-(piperidin-4-yl)-1H-indol-2-yl)-N-(2-methoxyethyl)-8-methylimidazo[1,2-a]pyridine-2-carboxamide], the IC50 was under 100 nM against human TLR8, under 100 nM against human TLR7 and 100 to 1000 nM at human TLR9.
With `CNCCN1CCC(c2ccc3[nH]c(-c4cncc5ccccc45)c(C)c3c2)CC1` [Example 663, 2-(4-(2-(isoquinolin-4-yl)-3-methyl-1H-indol-5-yl)piperidin-1-yl)-N-methylethan-1-amine], the IC50 against human TLR8 is over 3130 nM; at human TLR7 it was 1000 to 50000 nM; against human TLR9 it was 100 to 1000 nM.
On to `CCC(C)NCC(=O)N1CCC(c2ccc3[nH]c(-c4ccnc5[nH]ncc45)c(C(C)C)c3c2)CC1` (stereo not drawn) [Example 583, 2-(sec-butylamino)-1-(4-(3-isopropyl-2-(1H-pyrazolo[3,4-b]pyridin-4-yl)-1H-indol-5-yl)piperidin-1-yl)ethan-1-one], for which the IC50 against human TLR8 is under 100 nM; on human TLR7, under 100 nM; against human TLR9, 1000 to 50000 nM.
As for `CCc1c(-c2ccnc3[nH]ncc23)[nH]c2ccc(C3CCN(Cc4cc(-c5ccccc5)on4)CC3)cc12` [Example 897, 3-((4-(3-ethyl-2-(1H-pyrazolo[3,4-b]pyridin-4-yl)-1H-indol-5-yl)piperidin-1-yl)methyl)-5-phenylisoxazole], the values for the half-inhibitory concentration (IC50) against human TLR8, on human TLR7 and on human TLR9 were 100 to 1000 nM, 1000 to 50000 nM and 1000 to 50000 nM, respectively.
Take `Cc1n[nH]c2nccc(-c3[nH]c4ccc(C5CCN(Cc6cnc[nH]6)CC5)cc4c3C(C)C)c12` [Example 875, 4-(5-(1-((1H-imidazol-5-yl)methyl)piperidin-4-yl)-3-isopropyl-1H-indol-2-yl)-3-methyl-1H-pyrazolo[3,4-b]pyridine]: the figures for the IC50 on human TLR8, against human TLR7 and against human TLR9 were under 100 nM, 100 to 1000 nM and 100 to 1000 nM, respectively.
`Cc1c(-c2ncc3[nH]ccc3n2)[nH]c2ccc(C3CCN(C4CCN(C(C)C)CC4)CC3)cc12` [Example 808, 2-(5-(1′-isopropyl-[1,4′-bipiperidin]-4-yl)-3-methyl-1H-indol-2-yl)-5H-pyrrolo[3,2-d]pyrimidine]: the IC50 against human TLR8 was 1000 to 50000 nM; against human TLR7 it was 1000 to 50000 nM; at human TLR9, under 100 nM.
Regarding `Cc1cn2c(C)cc(-c3[nH]c4ccc(C5CCN(C(=O)CN(C)C)CC5)cc4c3C(C)C)cc2n1` [Example 499, 2-(dimethylamino)-1-(4-(2-(2,5-dimethylimidazo[1,2-a]pyridin-7-yl)-3-isopropyl-1H-indol-5-yl)piperidin-1-yl)ethan-1-one], the IC50 against human TLR8 was in the range of 1000 to 50000 nM; against human TLR7, 100 to 1000 nM; against human TLR9 it was 100 to 1000 nM.
Turning to `CCc1c(C)c(-c2[nH]c3ccc(C4CCN(CC(=O)NC)CC4)cc3c2C(C)C)cn2ccnc12` [Example 418, 2-(4-(2-(8-ethyl-7-methylimidazo[1,2-a]pyridin-6-yl)-3-isopropyl-1H-indol-5-yl)piperidin-1-yl)-N-methylacetamide], the IC50 at human TLR8 was 100 to 1000 nM; against human TLR7 it was under 100 nM; against human TLR9, 1000 to 50000 nM.
On the same counts, the results for `CCc1c(-c2ccnc3[nH]nc(C)c23)[nH]c2ccc(C3CCNCC3)cc12` [Example 226, 4-(3-ethyl-5-(piperidin-4-yl)-1H-indol-2-yl)-3-methyl-1H-pyrazolo[3,4-b]pyridine] are under 100 nM, under 100 nM and 100 to 1000 nM.
Turning to `CNC(=O)c1cn2cc(-c3[nH]c4ccc(C5CCN(CC(=O)N(C)C)CC5)cc4c3C(C)C)cc(C)c2n1` [Example 346, 6-(5-(1-(2-(dimethylamino)-2-oxoethyl)piperidin-4-yl)-3-isopropyl-1H-indol-2-yl)-N,8-dimethylimidazo[1,2-a]pyridine-2-carboxamide], the IC50 is under 100 nM at human TLR8, under 100 nM at human TLR7 and 1000 to 50000 nM at human TLR9.
On to `CNC(=O)CN1CCC(c2ccc3[nH]c(-c4ccnc5[nH]ncc45)c(CC(F)F)c3c2)CC1` [Example 387, 2-(4-(3-(2,2-difluoroethyl)-2-(1H-pyrazolo[3,4-b]pyridin-4-yl)-1H-indol-5-yl)piperidin-1-yl)-N-methylacetamide], for which the IC50 is under 100 nM at human TLR8, 100 to 1000 nM at human TLR7 and 1000 to 50000 nM against human TLR9.
Turning to `CC(C)c1c(-c2ccnc3[nH]ncc23)[nH]c2ccc(C3CCN(C(=O)CCC(=O)N(C)C)CC3)cc12` [Example 613, 4-(4-(3-isopropyl-2-(1H-pyrazolo[3,4-b]pyridin-4-yl)-1H-indol-5-yl)piperidin-1-yl)-N,N-dimethyl-4-oxobutanamide], the IC50 on human TLR8 was 100 to 1000 nM; against human TLR7 it was 100 to 1000 nM; against human TLR9, over 50000 nM.
